Measurements from patent publication EP4745137A1 (Gluetacs Therapeutics (Shanghai) Co., Ltd., priority 2023, dated 2025).

Tests used:
CK1α = target: T1, CK1α (Homo sapiens, UniProt P48729+Q96SW2); test: Western-blot assay of substrate protein degradation in hPBMCs, CK1α; type: cell-based; details: 24 hours of compound treatment
T1 construct: endogenous in cells; host or cells: hPBMCs (Milecell Biotechnologies)

IKZF1 = target: T2, IKZF1 (Homo sapiens, UniProt Q13422+Q96SW2); test: Western-blot assay of substrate protein degradation in hPBMCs, IKZF1; type: cell-based; details: 24 hours of compound treatment
T2 construct: endogenous in cells; host or cells: hPBMCs (Milecell Biotechnologies)

IKZF3 = target: T3, IKZF3 (Homo sapiens, UniProt Q96SW2+Q9UKT9); test: Western-blot assay of substrate protein degradation in hPBMCs, IKZF3; type: cell-based; details: 24 hours of compound treatment
T3 construct: endogenous in cells; host or cells: hPBMCs (Milecell Biotechnologies)

[1] = system: Human acute T lymphocytic leukemia cells (Molt-4); test: Tumor cell proliferation inhibition (CellTiter-Meiluncell Luminescent Cell Viability Assay), Molt-4; details: MOLT-4, 96 h, read-out: inhibitory activity (IC50, nM) against tumor cells proliferation, Molt 4
WEE1 = target: T4, WEE1 (Homo sapiens, UniProt P30291+Q96SW2); test: Western-blot assay of substrate protein degradation in hPBMCs, WEE1; type: cell-based; details: 24 hours of compound treatment
T4 construct: endogenous in cells; host or cells: hPBMCs (Milecell Biotechnologies)

GSPT1 = target: T5, GSPT1 (Homo sapiens, UniProt P15170+Q96SW2); test: Western-blot assay of substrate protein degradation in hPBMCs, GSPT1; type: cell-based; details: 24 hours of compound treatment
T5 construct: endogenous in cells; host or cells: hPBMCs (Milecell Biotechnologies)

IKZF2 = target: T6, IKZF2 (Homo sapiens, UniProt Q96SW2+Q9UKS7); test: Western-blot assay of substrate protein degradation in hPBMCs, IKZF2; type: cell-based; details: 24 hours of compound treatment
T6 construct: endogenous in cells; host or cells: hPBMCs (Milecell Biotechnologies)

[2] = target: T7, human Cereblon WT GST-tagged protein (Homo sapiens, UniProt Q96SW2); test: CRBN-binding affinity by HTRF (CEREBLON BINDING kit); details: HTRF inhibitory activity, CEREBLON BINDING kit; read-out: HTRF IC50
T7 construct: purchased CISBIO 64BDCRBNPEH

[3] = compounds tested at 50 nM and 500 nM (concentration of the table not stated)
[4] = 50 nM and 500 nM tested (concentration behind the class not stated)

T1 sequence (P48729 whole entry): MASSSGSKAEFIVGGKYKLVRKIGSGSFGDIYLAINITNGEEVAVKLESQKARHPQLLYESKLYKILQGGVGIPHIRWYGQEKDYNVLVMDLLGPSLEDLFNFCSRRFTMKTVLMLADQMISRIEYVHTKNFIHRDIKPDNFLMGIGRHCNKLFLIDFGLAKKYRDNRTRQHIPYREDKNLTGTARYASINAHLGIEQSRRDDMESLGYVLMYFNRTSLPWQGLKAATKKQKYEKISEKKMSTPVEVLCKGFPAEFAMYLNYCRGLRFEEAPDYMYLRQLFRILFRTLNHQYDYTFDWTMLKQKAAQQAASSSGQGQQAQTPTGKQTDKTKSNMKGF
T1 sequence (Q96SW2 whole entry): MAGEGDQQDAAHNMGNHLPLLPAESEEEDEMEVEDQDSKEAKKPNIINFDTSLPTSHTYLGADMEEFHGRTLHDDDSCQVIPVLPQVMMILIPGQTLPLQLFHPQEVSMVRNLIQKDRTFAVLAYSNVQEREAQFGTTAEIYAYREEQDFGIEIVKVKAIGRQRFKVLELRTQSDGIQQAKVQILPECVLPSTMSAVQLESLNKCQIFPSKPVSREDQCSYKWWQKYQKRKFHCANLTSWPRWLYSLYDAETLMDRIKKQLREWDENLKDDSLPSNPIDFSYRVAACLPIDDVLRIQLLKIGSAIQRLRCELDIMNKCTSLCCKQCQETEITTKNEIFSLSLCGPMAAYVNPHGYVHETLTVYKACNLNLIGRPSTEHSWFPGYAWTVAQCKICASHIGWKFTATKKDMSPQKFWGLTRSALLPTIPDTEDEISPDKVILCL
T1 sequence (Q16531 whole entry partner): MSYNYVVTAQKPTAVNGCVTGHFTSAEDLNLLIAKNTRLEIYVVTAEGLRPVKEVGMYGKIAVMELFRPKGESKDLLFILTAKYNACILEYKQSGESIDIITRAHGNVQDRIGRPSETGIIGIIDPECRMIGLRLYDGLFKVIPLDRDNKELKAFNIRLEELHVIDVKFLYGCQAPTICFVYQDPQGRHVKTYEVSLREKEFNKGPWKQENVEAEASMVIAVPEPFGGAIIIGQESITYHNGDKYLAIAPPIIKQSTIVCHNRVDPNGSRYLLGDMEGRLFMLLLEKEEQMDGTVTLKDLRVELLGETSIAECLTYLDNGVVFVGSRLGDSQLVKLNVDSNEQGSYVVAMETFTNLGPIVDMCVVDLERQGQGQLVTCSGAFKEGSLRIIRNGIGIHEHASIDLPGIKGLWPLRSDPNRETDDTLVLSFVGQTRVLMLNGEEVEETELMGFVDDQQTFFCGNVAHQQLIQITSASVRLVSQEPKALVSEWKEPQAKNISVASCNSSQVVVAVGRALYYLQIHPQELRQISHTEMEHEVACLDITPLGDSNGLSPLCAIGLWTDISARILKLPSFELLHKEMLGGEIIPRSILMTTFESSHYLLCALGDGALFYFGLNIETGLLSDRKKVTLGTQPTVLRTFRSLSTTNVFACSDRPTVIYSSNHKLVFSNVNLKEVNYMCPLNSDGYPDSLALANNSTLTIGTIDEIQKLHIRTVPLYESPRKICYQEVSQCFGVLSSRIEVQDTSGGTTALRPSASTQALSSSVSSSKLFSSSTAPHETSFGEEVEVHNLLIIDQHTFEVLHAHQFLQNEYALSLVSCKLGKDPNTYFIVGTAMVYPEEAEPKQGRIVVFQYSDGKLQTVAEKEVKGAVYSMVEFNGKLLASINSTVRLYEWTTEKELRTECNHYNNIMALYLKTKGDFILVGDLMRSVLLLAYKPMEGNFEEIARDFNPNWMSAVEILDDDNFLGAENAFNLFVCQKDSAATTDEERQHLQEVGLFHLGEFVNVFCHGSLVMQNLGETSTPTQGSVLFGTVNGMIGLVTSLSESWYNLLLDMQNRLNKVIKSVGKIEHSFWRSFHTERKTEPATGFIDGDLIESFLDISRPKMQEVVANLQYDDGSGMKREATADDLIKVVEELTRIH
T3 sequence (Q9UKT9 whole entry): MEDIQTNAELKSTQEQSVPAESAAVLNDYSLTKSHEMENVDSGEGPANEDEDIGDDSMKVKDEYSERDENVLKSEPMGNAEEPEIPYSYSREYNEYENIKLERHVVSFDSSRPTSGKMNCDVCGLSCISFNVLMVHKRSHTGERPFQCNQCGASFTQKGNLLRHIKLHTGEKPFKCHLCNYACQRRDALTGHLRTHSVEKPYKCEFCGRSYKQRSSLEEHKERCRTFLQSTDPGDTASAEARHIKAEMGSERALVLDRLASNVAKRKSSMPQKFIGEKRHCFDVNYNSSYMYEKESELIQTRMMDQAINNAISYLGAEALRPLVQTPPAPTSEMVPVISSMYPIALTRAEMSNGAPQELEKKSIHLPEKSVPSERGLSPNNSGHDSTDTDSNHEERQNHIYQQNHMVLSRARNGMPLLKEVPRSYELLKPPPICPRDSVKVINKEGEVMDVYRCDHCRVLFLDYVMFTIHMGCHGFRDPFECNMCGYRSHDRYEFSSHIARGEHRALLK
T3 sequence (Q96SW2 whole entry): as the sequence (Q96SW2 whole entry) above
T3 sequence (Q16531 whole entry partner): as the sequence (Q16531 whole entry partner) above
T6 sequence (Q9UKS7 whole entry): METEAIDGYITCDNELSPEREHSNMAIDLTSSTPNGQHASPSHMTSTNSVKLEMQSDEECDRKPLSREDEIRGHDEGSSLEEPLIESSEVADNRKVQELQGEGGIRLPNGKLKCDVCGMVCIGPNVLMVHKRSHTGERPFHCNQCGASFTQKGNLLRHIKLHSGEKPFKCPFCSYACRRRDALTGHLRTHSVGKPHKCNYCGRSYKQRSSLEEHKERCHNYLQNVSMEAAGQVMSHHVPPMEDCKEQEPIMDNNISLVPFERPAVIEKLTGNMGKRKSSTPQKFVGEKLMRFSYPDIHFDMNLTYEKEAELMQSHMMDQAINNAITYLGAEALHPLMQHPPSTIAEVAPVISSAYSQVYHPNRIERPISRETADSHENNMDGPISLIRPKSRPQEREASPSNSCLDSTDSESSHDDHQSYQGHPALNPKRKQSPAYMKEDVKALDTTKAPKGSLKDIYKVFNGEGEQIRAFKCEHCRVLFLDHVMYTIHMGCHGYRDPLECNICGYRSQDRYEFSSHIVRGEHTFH
T6 sequence (Q96SW2 whole entry): as the sequence (Q96SW2 whole entry) above
T6 sequence (Q16531 whole entry partner): as the sequence (Q16531 whole entry partner) above
T4 sequence (P30291 whole entry): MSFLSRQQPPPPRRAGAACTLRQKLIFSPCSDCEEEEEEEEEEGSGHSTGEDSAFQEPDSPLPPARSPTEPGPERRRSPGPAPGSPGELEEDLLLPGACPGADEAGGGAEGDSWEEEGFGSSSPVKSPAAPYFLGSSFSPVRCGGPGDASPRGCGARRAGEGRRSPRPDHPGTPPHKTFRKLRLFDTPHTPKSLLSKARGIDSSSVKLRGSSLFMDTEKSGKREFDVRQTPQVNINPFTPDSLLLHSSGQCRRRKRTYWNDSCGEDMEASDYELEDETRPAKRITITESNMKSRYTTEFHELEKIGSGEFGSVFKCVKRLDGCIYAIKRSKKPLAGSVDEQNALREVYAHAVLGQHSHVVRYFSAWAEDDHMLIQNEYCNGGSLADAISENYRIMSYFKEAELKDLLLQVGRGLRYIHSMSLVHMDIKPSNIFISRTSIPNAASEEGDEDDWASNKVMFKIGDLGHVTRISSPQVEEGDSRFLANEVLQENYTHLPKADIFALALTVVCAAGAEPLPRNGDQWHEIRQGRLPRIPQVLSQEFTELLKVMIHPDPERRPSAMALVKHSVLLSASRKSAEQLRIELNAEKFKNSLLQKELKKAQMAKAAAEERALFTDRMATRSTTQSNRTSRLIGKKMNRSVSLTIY
T4 sequence (Q96SW2 whole entry): as the sequence (Q96SW2 whole entry) above
T4 sequence (Q16531 whole entry partner): as the sequence (Q16531 whole entry partner) above
T2 sequence (Q13422 whole entry): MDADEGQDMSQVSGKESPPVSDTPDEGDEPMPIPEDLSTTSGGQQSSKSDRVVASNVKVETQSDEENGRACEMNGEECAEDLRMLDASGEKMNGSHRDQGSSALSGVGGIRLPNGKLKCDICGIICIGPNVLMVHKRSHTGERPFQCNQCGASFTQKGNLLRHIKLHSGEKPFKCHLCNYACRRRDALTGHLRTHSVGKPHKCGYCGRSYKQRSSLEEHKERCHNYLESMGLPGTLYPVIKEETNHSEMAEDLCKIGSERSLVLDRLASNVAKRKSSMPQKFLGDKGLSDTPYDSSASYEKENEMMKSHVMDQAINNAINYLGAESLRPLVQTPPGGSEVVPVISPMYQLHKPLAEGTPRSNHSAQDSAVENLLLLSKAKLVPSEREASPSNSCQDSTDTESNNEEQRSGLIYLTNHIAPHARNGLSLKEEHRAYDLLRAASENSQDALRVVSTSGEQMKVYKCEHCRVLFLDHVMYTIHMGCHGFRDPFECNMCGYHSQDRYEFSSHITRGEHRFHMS
T2 sequence (Q96SW2 whole entry): as the sequence (Q96SW2 whole entry) above
T2 sequence (Q16531 whole entry partner): as the sequence (Q16531 whole entry partner) above
T7 sequence (Q96SW2 whole entry): as the sequence (Q96SW2 whole entry) above

IC50 [2] [nM] | SMILES | CK1a substrate protein remaining % (CK1α; [3]) | IKZF 1 substrate protein remaining % (IKZF1; [3]) | IKZF3 substrate protein remaining % (IKZF3; [3]) | IC50 [1] [nM] | Weel substrate protein remaining % (WEE1; [3]) | GSPT1 substrate protein remaining % (GSPT1; [3]) | IKZF2 substrate protein remaining % (IKZF2; [3]) | CK1a substrate protein remaining % (CK1α; [4]) | IKZF 1 substrate protein remaining % (IKZF1; [4]) | IKZF3 substrate protein remaining % (IKZF3; [4]) | Weel substrate protein remaining % (WEE1; [4]) | GSPT1 substrate protein remaining % (GSPT1; [4]) | IKZF2 substrate protein remaining % (IKZF2; [4])
 | Cc1ccsc1C1=CCN(Cc2cccc3c2C(=O)N(C2CCC(=O)NC2=O)C3=O)CC1 (stereo not drawn) [GT-04731, 2-(2,6-dioxopiperidin-3-yl)-4-((4-(3-methylthiophen-2-yl)-3,6-dihydropyridin-1(2H)-yl)methyl)isoindoline-1,3-dione] | B (80%< substrate protein remaining %≤ 100%) | B (80%< substrate protein remaining %≤ 100%) | B (80%< substrate protein remaining %≤ 100%) | 500 to 1000 | B (80%< substrate protein remaining %≤ 100%) | A (0% ≤ substrate protein remaining % ≤ 80%) | B (80%< substrate protein remaining %≤ 100%) |  |  |  |  |  | 
1500 to 1900 | O=C1CCC(N2Cc3cc(CNC45CC6CC(CC(C6)C4)C5)ccc3C2=O)C(=O)N1 (stereo not drawn) [GT-06913, 3-(5-((((3s,5s,7s)-adamantan-1-yl)amino)methyl)-1-oxoisoindolin-2-yl)piperidine-2,6-dione] |  |  |  |  |  |  |  | A (0% ≤ substrate protein remaining % ≤ 80%) | A (0% ≤ substrate protein remaining % ≤ 80%) | B (80%< substrate protein remaining %≤ 100%) | A (0% ≤ substrate protein remaining % ≤ 80%) | A (0% ≤ substrate protein remaining % ≤ 80%) | A (0% ≤ substrate protein remaining % ≤ 80%)
1000 to 1500 | Cc1sc2ncnc(C3=CCN(Cc4ccc5c(c4)C(=O)N(C4CCC(=O)NC4=O)C5=O)CC3)c2c1C (stereo not drawn) [GT-06657, 5-((4-(5,6-dimethylthieno[2,3-d]pyrimidin-4-yl)-3,6-dihydropyridin-1 (2H)-yl)methyl)-2-(2,6-dioxopiperidin-3-yl)isoindoline-1,3-dione] |  |  |  |  |  |  |  | B (80%< substrate protein remaining %≤ 100%) | A (0% ≤ substrate protein remaining % ≤ 80%) | B (80%< substrate protein remaining %≤ 100%) | A (0% ≤ substrate protein remaining % ≤ 80%) | A (0% ≤ substrate protein remaining % ≤ 80%) | B (80%< substrate protein remaining %≤ 100%)
< 500 | O=C1CCC(N2Cc3cc(CN4CC=C(c5ncnc6scc(-c7ccccc7)c56)CC4)ccc3C2=O)C(=O)N1 (stereo not drawn) [GT-04908, 3-(1-oxo-5-((4-(5-phenylthieno[2,3-d]pyrimidin-4-yl)-3,6-dihydropyridin-1(2H)-yl)methyl)isoindolin-2-yl)piperidine-2,6-dione] | B (80%< substrate protein remaining %≤ 100%) | A (0% ≤ substrate protein remaining % ≤ 80%) | A (0% ≤ substrate protein remaining % ≤ 80%) |  | A (0% ≤ substrate protein remaining % ≤ 80%) | A (0% ≤ substrate protein remaining % ≤ 80%) | A (0% ≤ substrate protein remaining % ≤ 80%) |  |  |  |  |  | 
500 to 1000 | O=C1CCC(N2Cc3cc(CN4CC(C5CCOc6cc(F)ccc65)C4)ccc3C2=O)C(=O)N1 (stereo not drawn) [GT-04700, 3-(5-((3-(7-fluorochroman-4-yl)azetidin-1-yl)methyl)-1-oxoisoindolin-2-yl)piperidine-2,6-dione] | B (80%< substrate protein remaining %≤ 100%) | A (0% ≤ substrate protein remaining % ≤ 80%) | A (0% ≤ substrate protein remaining % ≤ 80%) |  | B (80%< substrate protein remaining %≤ 100%) | A (0% ≤ substrate protein remaining % ≤ 80%) | A (0% ≤ substrate protein remaining % ≤ 80%) |  |  |  |  |  | 
< 500 | Cc1nc(C2CCN(Cc3ccc4c(c3)CN(C3CCC(=O)NC3=O)C4=O)CC2)c2c(-c3ccccc3)csc2n1 (stereo not drawn) [GT-05158, 3-(5-((4-(2-methyl-5-phenylthieno[2,3-d]pyrimidin-4-yl)piperidin-1-yl)methyl)-1-oxoisoindolin-2-yl)piperidine-2,6-dione] | B (80%< substrate protein remaining %≤ 100%) | B (80%< substrate protein remaining %≤ 100%) | A (0% ≤ substrate protein remaining % ≤ 80%) |  | B (80%< substrate protein remaining %≤ 100%) | A (0% ≤ substrate protein remaining % ≤ 80%) | A (0% ≤ substrate protein remaining % ≤ 80%) |  |  |  |  |  | 
< 500 | O=C1CCC(N2Cc3cc(CN4CCN(c5nc(N6CCC6)nc6c5SCC6)CC4)ccc3C2=O)C(=O)N1 (stereo not drawn) [GT-05900, 3-(5-((4-(2-(azetidin-1-yl)-6,7-dihydrothieno[3,2-d]pyrimidin-4-yl)piperazin-1-yl)methyl)-1-oxoisoindolin-2-yl)piperidine-2,6-dione] |  |  |  |  |  |  |  | B (80%< substrate protein remaining %≤ 100%) | B (80%< substrate protein remaining %≤ 100%) | A (0% ≤ substrate protein remaining % ≤ 80%) | B (80%< substrate protein remaining %≤ 100%) | B (80%< substrate protein remaining %≤ 100%) | A (0% ≤ substrate protein remaining % ≤ 80%)
< 500 | O=C1CCC(N2Cc3cc(CN4CC(N5CCc6cc(F)ccc65)C4)ccc3C2=O)C(=O)N1 (stereo not drawn) [GT-04677, 3-(5-((3-(5-fluoroindolin-1-yl)azetidin-1-yl)methyl)-1-oxoisoindolin-2-yl)piperidine-2,6-dione] | B (80%< substrate protein remaining %≤ 100%) | A (0% ≤ substrate protein remaining % ≤ 80%) | A (0% ≤ substrate protein remaining % ≤ 80%) |  | A (0% ≤ substrate protein remaining % ≤ 80%) | A (0% ≤ substrate protein remaining % ≤ 80%) | A (0% ≤ substrate protein remaining % ≤ 80%) |  |  |  |  |  | 
500 to 1000 | Cc1cc2c(C3=CCN(Cc4ccc5c(c4)C(=O)N(C4CCC(=O)NC4=O)C5=O)CC3)ncnc2s1 (stereo not drawn) [GT-06655, 2-(2,6-dioxopiperidin-3-yl)-5-((4-(6-methylthieno[2,3-d]pyrimidin-4-yl)-3,6-dihydropyridin-1(2H)-yl)methyl)isoindoline-1,3-dione] |  |  |  |  |  |  |  | B (80%< substrate protein remaining %≤ 100%) | A (0% ≤ substrate protein remaining % ≤ 80%) | A (0% ≤ substrate protein remaining % ≤ 80%) | A (0% ≤ substrate protein remaining % ≤ 80%) | A (0% ≤ substrate protein remaining % ≤ 80%) | A (0% ≤ substrate protein remaining % ≤ 80%)
